Data reported in patent publication US20190185339A1, “Zirconium-Based Cluster as a Dentin Tubule Occlusion Agent” (Colgate-Palmolive Company, priority 2017, published 2019).

Tests used:
[1] = Stability in terms of gelation and flocculation (clear or gel); type: physicochemical; details: 1% zirconium oxychloride with varied arginine; incubated 1 day at 50° C., cooled to room temperature
Protocol: In some embodiments, the zirconium oxychloride cluster of the invention is stable at pH 2-6, 3-5, 3-4, 3.5-4.5 or 4-4.5, in solution, e.g., in aqueous solution.
(§1) Samples were prepared according to Table 1. Water was added to zirconium oxychloride (ZrOCl2.8H2O, MW 322.25) in a glass jar to yield a clear solution containing 1% zirconium oxychloride. Under stirring, L-arginine was slowly added to prevent clumping of arginine as well as large fluctuations in localized pH values. The solutions were incubated for 1 day at 50° C. Then the solutions were cooled to room temperature. Solid gel was formed in samples with the molar ratio of arginine to zirconium oxychloride of 2-4.
(§2) The zirconium oxychloride cluster was prepared as described in Example 1. The prepared zirconium oxychloride cluster was purified by gel permeability chromatograph (GPC). GPC column was prepared using Bio-Rad P2 gel with 5 μm particle size. Approximately 10 mL of prepared solution was filtered (0.45 μm) and loaded on the column using a HPLC pump at 0.2 mL/min. The mobile phase of the GPC chromatography was deionized water. Elution fractions were collected in intervals and monitored using SEC-RI. […] The pH of the GPC fraction (1160-1300 min) was 4.5. […] 10 g of this fraction was freeze dried to obtain purified powder for subsequent PXRD analysis.

[2] = solution of zirconium oxychloride which is effective as an antiperspirant; cited from earlier work
[3] = pH of the zirconium oxychloride / arginine solutions; type: physicochemical
Protocol: as §1
A 100 g batch was prepared according to Table 2. 1% w/w zirconium oxychloride (ZrOCl2.8H2O, MW 322.25) and arginine were mixed in aqueous solution with the molar ratio of arginine to zirconium oxychloride of 1:1.
as §2

[Cl-].[Cl-].[O]=[Zr+2] [Zr, zirconium oxychloride (ZrOCl2.8H2O, MW 322.25)]
appearance (clear / gel) [1]: clear
pH of solution [2]: about 0.8
pH ([3]; 1% zirconium oxychloride with varied arginine, incubated 1 day at 50° C., cooled to room temperature): 1.39
pH value ([3]; zirconium oxychloride alone, general statement): < 2
